Data from US6858638B2, “Substituted indazoles, compositions containing them, method of production and use” (Aventis Pharma S.A., priority 2002, dated 2005).

Biological target: CDK2/cyclinE kinase (Homo sapiens, UniProt P24941)
Experiment: CDK2/cyclinE kinase phosphorylation of Rb-biotinylated peptide, scintillation plates
Assay type: biochemical
Conditions: read-out: CDK2 % inhib at 10 μM
Description: The inhibition of the CDK2/cyclinE kinase is evaluated by measuring the phosphorylation of the peptide substrate Rb-biotinylated, detected by […], in 96-well scintillation plates (Flashplates) coated with streptavidin.
Each point is assayed in duplicate.
Sequence of the Rb-biotinylated peptide: Biotin-[…]-OH
Protocol: • 1. Preparation of the substrate: fresh solution at 1 mg/ml in PBS. • 2. Introduce 4 μg per well into the scintillation plate. • 3. Incubate for 2 hours at ambient temperature. • 4. Prepare series of dilutions at 1 mM, 300 μM, 100 μM, 30 μM and 10 μM in DMSO from a stock solution of inhibitor at 10 mM in DMSO. • 5. Wash the scintillation plate with 3 times 300 μl of PBS to remove the unbound peptide substrate. • 6. Add the CDK2/cyclinE kinase: 200 ng per well, in 90 μl of kinase buffer (with the exception of the “without enzyme” control wells). • 7. Add the test inhibitor to each of the wells, at a final concentration for 100 μl of 10 μM, 3 μM, 1 μM, 0.3 μM and 0.1 μM. • 8. Agitate the scintillation plate gently for 1 minute. • 9. Incubate for 30 minutes on ice. • 10. Initiate the reaction with 10 μl of kinase buffer having a final concentration per well of 1 μM of cold ATP and of 1 μCi of ATP-^33P. • 11. […] Indirect measurement of the radioactivity corresponding to the incorporation of ATP-^33P, originating from the kinase, into the phosphorylation site of Rb. […]

Structure (SMILES)	inhibition at 10 µM [%]
Nc1n[nH]c2ccc(NS(=O)(=O)c3cccc(F)c3)cc12 [Example 26, N-(3-Amino-1H-indazol-5-yl)-3-fluorobenzenesulfonamide]	39
CS(=O)(=O)c1ccccc1S(=O)(=O)Nc1ccc2[nH]nc(-c3ccc(Cl)cc3)c2c1 [Example 30, N-[3-(4-Chlorophenyl)-1H-indazol-5-yl]-2-methylsulfonylbenzenesulfonamide]	73
